How the values were obtained:
[1] = Nanoparticle size by dynamic light scattering (DLS); format: physicochemical; conditions: control: unconjugated paclitaxel + VitES + mPEG5-PCL7
Experimental: A 300 mM sucrose solution is prepared, loaded into a 100 ml gas tight syringe, and fixed on a second syringe pump. […] At the mixer outlet, two samples are collected. The first sample is collected in a scintillation vial and analyzed for particle size by dynamic light scattering (DLS), and the second sample is collected in low temperature freezer vials, and freeze-dried. The freeze-drying cycle is the following: −40° C. overnight, −10° C. for a day, 4° C. for a day, and then room temperature for one day. […] The samples are checked visually for crystals/aggregates formation. […] A freeze-dried sample is dissolved in methanol to dissociate the nanoparticles, and the solution is tested for the presence of THF using CGC. Particle size may be determined by DLS. […] The sample collected in a scintillation vial from the mixer effluent is inserted into the DLS sample cell containing decalin scintillation fluid (maintained at 25° C. using a temperature bath), and left to equilibrate to the cell temperature. The run duration is 60 seconds, replicated three times. The particle size expressed as the hydrodynamic diameter is obtained using an ALV 5000 correlator and a second order cumulant fit.

[2] = Visual check / description of nanoparticle samples for crystals, aggregates, stability; format: physicochemical; conditions: control: unconjugated paclitaxel 8 mg + VitES 10 mg + mPEG5-PCL7 in THF mixed against water
Experimental: A 300 mM sucrose solution is prepared, loaded into a 100 ml gas tight syringe, and fixed on a second syringe pump. […] At the mixer outlet, two samples are collected. The first sample is collected in a scintillation vial and analyzed for particle size by dynamic light scattering (DLS), and the second sample is collected in low temperature freezer vials, and freeze-dried. The freeze-drying cycle is the following: −40° C. overnight, −10° C. for a day, 4° C. for a day, and then room temperature for one day. […] The samples are checked visually for crystals/aggregates formation. […] A freeze-dried sample is dissolved in methanol to dissociate the nanoparticles, and the solution is tested for the presence of THF using CGC.

particles detected by Dynamic Light Scattering [1]: no particles were detected
time after mixing at which crystals were visible [2]: about 20 minutes
Structure (SMILES): CC(=O)O[C@H]1C(=O)[C@@]2(C)[C@H]([C@H](OC(=O)c3ccccc3)[C@]3(O)C[C@H](OC(=O)[C@H](O)[C@@H](NC(=O)c4ccccc4)c4ccccc4)C(C)=C1C3(C)C)[C@]1(OC(C)=O)CO[C@@H]1C[C@@H]2O [paclitaxel]
